ChEMBL document CHEMBL6092193, “Identification of furo[2,3-d]pyrimidin-4-ylsulfanyl-1,3,4-thiadiazole derivatives as novel FLT3-ITD inhibitors” (Eur J Med Chem, 2024)

tested on: K562; assay: cells; settings: Homo sapiens, K562, 72 h
Description: Antiproliferative activity against FLT3-independent human K562 cells assessed as inhibition of cell growth incubated for 72 hrs by resazurin dye based fluorescence analysis

| Compound | GI50 [nM] |
| --- | --- |
| Cc1cccc(NC(=O)Nc2nnc(Sc3ncnc4oc(-c5ccccc5)c(-c5ccccc5)c34)s2)c1 | > 10000 |
| COc1cccc(NC(=O)Nc2nnc(Sc3ncnc4oc(-c5ccccc5)c(-c5ccccc5)c34)s2)c1 | 9950 |
| O=C(Nc1ccc(Br)cc1)Nc1nnc(Sc2ncnc3oc(-c4ccccc4)c(-c4ccccc4)c23)s1 | > 10000 |
| Cc1ccc(NC(=O)Nc2nnc(Sc3ncnc4oc(-c5ccccc5)cc34)s2)cc1Cl | 9500 |
| O=C(Nc1ccc(Cl)c(C(F)(F)F)c1)Nc1nnc(Sc2ncnc3oc(-c4ccccc4)cc23)s1 | > 10000 |
| COc1ccc(-c2cc3c(Sc4nnc(NC(=O)Nc5ccccc5)s4)ncnc3o2)cc1 | > 10000 |
| COc1ccc(-c2cc3c(Sc4nnc(NC(=O)Nc5ccc(Cl)cc5)s4)ncnc3o2)cc1 | > 10000 |
| O=C(Nc1ccc(Cl)cc1)Nc1nnc(Sc2ncnc3oc(-c4ccccc4)c(-c4ccccc4)c23)s1 | 9860 |
| O=C(Nc1nnc(Sc2ncnc3oc(-c4ccccc4)c(-c4ccccc4)c23)s1)Nc1ccc(F)cc1F | > 10000 |
| O=C(Nc1cccc(Cl)c1)Nc1nnc(Sc2ncnc3oc(-c4ccccc4)c(-c4ccccc4)c23)s1 | > 10000 |
| COc1ccc(-c2cc3c(Sc4nnc(NC(=O)Nc5cccc(Cl)c5)s4)ncnc3o2)cc1 | > 10000 |
| O=C(Nc1cccc(Cl)c1)Nc1nnc(Sc2ncnc3oc(-c4ccccc4)cc23)s1 | > 10000 |
| Cc1ccc(NC(=O)Nc2nnc(Sc3ncnc4oc(-c5ccccc5)c(-c5ccccc5)c34)s2)cc1 | > 10000 |
| O=C(Nc1ccc(Cl)cc1)Nc1nnc(Sc2ncnc3oc(-c4ccccc4)cc23)s1 | > 10000 |
| O=C(Nc1cccc(F)c1)Nc1nnc(Sc2ncnc3oc(-c4ccccc4)cc23)s1 | 7960 |
| COc1ccc(NC(=O)Nc2nnc(Sc3ncnc4oc(-c5ccccc5)c(-c5ccccc5)c34)s2)cc1 | > 10000 |
| O=C(Nc1ccccc1)Nc1nnc(Sc2ncnc3oc(-c4ccccc4)c(-c4ccccc4)c23)s1 | > 10000 |
| Cc1ccc(NC(=O)Nc2nnc(Sc3ncnc4oc(-c5ccccc5)c(-c5ccccc5)c34)s2)cc1Cl | > 10000 |
| O=C(Nc1ccc(Cl)c(C(F)(F)F)c1)Nc1nnc(Sc2ncnc3oc(-c4ccccc4)c(-c4ccccc4)c23)s1 | > 10000 |
| COc1cccc(NC(=O)Nc2nnc(Sc3ncnc4oc(-c5ccccc5)cc34)s2)c1 | 9460 |
| Cc1cccc(NC(=O)Nc2nnc(Sc3ncnc4oc(-c5ccccc5)cc34)s2)c1 | > 10000 |
| O=C(Nc1ccc(Cl)c(Cl)c1)Nc1nnc(Sc2ncnc3oc(-c4ccccc4)cc23)s1 | 9830 |
| O=C(Nc1ccc(Br)cc1)Nc1nnc(Sc2ncnc3oc(-c4ccccc4)cc23)s1 | > 10000 |
| COc1ccc(NC(=O)Nc2nnc(Sc3ncnc4oc(-c5ccc(OC)cc5)cc34)s2)cc1 | > 10000 |
| O=C(Nc1cccc(F)c1)Nc1nnc(Sc2ncnc3oc(-c4ccccc4)c(-c4ccccc4)c23)s1 | > 10000 |
| O=C(Nc1ccccc1)Nc1nnc(Sc2ncnc3oc(-c4ccccc4)cc23)s1 | > 10000 |
| COc1ccc(-c2cc3c(Sc4nnc(NC(=O)Nc5ccc(Cl)c(C(F)(F)F)c5)s4)ncnc3o2)cc1 | > 10000 |
| O=C(Nc1nnc(Sc2ncnc3oc(-c4ccccc4)c(-c4ccccc4)c23)s1)Nc1ccccc1Br | > 10000 |
| O=C(Nc1ccc(Cl)c(Cl)c1)Nc1nnc(Sc2ncnc3oc(-c4ccccc4)c(-c4ccccc4)c23)s1 | > 10000 |

tested on: MV4-11; assay: Antiproliferative activity against human MV4-11 cells harboring homozygous FLT3-ITD mutant assessed as inhibition of cell growth incubated for 72 hrs by resazurin dye based fluorescence analysis; type: functional; settings: not given

| Compound | GI50 [nM] |
| --- | --- |
| Cc1cccc(NC(=O)Nc2nnc(Sc3ncnc4oc(-c5ccccc5)c(-c5ccccc5)c34)s2)c1 | 115 |
| COc1cccc(NC(=O)Nc2nnc(Sc3ncnc4oc(-c5ccccc5)c(-c5ccccc5)c34)s2)c1 | 86 |
| O=C(Nc1ccc(Br)cc1)Nc1nnc(Sc2ncnc3oc(-c4ccccc4)c(-c4ccccc4)c23)s1 | 396 |
| Cc1ccc(NC(=O)Nc2nnc(Sc3ncnc4oc(-c5ccccc5)cc34)s2)cc1Cl | 430 |
| O=C(Nc1ccc(Cl)c(C(F)(F)F)c1)Nc1nnc(Sc2ncnc3oc(-c4ccccc4)cc23)s1 | 910 |
| COc1ccc(-c2cc3c(Sc4nnc(NC(=O)Nc5ccccc5)s4)ncnc3o2)cc1 | 96 |
| COc1ccc(-c2cc3c(Sc4nnc(NC(=O)Nc5ccc(Cl)cc5)s4)ncnc3o2)cc1 | 1380 |
| O=C(Nc1ccc(Cl)cc1)Nc1nnc(Sc2ncnc3oc(-c4ccccc4)c(-c4ccccc4)c23)s1 | 342 |
| O=C(Nc1nnc(Sc2ncnc3oc(-c4ccccc4)c(-c4ccccc4)c23)s1)Nc1ccc(F)cc1F | 169 |
| O=C(Nc1cccc(Cl)c1)Nc1nnc(Sc2ncnc3oc(-c4ccccc4)c(-c4ccccc4)c23)s1 | 362 |
| COc1ccc(-c2cc3c(Sc4nnc(NC(=O)Nc5cccc(Cl)c5)s4)ncnc3o2)cc1 | 1560 |
| O=C(Nc1cccc(Cl)c1)Nc1nnc(Sc2ncnc3oc(-c4ccccc4)cc23)s1 | 345 |
| Cc1ccc(NC(=O)Nc2nnc(Sc3ncnc4oc(-c5ccccc5)c(-c5ccccc5)c34)s2)cc1 | 134 |
| O=C(Nc1ccc(Cl)cc1)Nc1nnc(Sc2ncnc3oc(-c4ccccc4)cc23)s1 | 430 |
| O=C(Nc1cccc(F)c1)Nc1nnc(Sc2ncnc3oc(-c4ccccc4)cc23)s1 | 337 |
| COc1ccc(NC(=O)Nc2nnc(Sc3ncnc4oc(-c5ccccc5)c(-c5ccccc5)c34)s2)cc1 | 61 |
| O=C(Nc1ccccc1)Nc1nnc(Sc2ncnc3oc(-c4ccccc4)c(-c4ccccc4)c23)s1 | 74 |
| Cc1ccc(NC(=O)Nc2nnc(Sc3ncnc4oc(-c5ccccc5)c(-c5ccccc5)c34)s2)cc1Cl | > 10000 |
| O=C(Nc1ccc(Cl)c(C(F)(F)F)c1)Nc1nnc(Sc2ncnc3oc(-c4ccccc4)c(-c4ccccc4)c23)s1 | 8300 |
| COc1cccc(NC(=O)Nc2nnc(Sc3ncnc4oc(-c5ccccc5)cc34)s2)c1 | 120 |
| Cc1cccc(NC(=O)Nc2nnc(Sc3ncnc4oc(-c5ccccc5)cc34)s2)c1 | 133 |
| O=C(Nc1ccc(Cl)c(Cl)c1)Nc1nnc(Sc2ncnc3oc(-c4ccccc4)cc23)s1 | 1030 |
| O=C(Nc1ccc(Br)cc1)Nc1nnc(Sc2ncnc3oc(-c4ccccc4)cc23)s1 | 1190 |
| COc1ccc(NC(=O)Nc2nnc(Sc3ncnc4oc(-c5ccc(OC)cc5)cc34)s2)cc1 | 250 |
| O=C(Nc1cccc(F)c1)Nc1nnc(Sc2ncnc3oc(-c4ccccc4)c(-c4ccccc4)c23)s1 | 145 |
| O=C(Nc1ccccc1)Nc1nnc(Sc2ncnc3oc(-c4ccccc4)cc23)s1 | 165 |
| COc1ccc(-c2cc3c(Sc4nnc(NC(=O)Nc5ccc(Cl)c(C(F)(F)F)c5)s4)ncnc3o2)cc1 | > 10000 |
| O=C(Nc1nnc(Sc2ncnc3oc(-c4ccccc4)c(-c4ccccc4)c23)s1)Nc1ccccc1Br | 290 |
| O=C(Nc1ccc(Cl)c(Cl)c1)Nc1nnc(Sc2ncnc3oc(-c4ccccc4)c(-c4ccccc4)c23)s1 | 6190 |

target: Receptor-type tyrosine-protein kinase FLT3 (Homo sapiens, UniProt P36888, ITD); assay: biochemical; type: cell-based, Sf9; settings: not given
Sequence (P36888 whole entry, looked up, change not shown): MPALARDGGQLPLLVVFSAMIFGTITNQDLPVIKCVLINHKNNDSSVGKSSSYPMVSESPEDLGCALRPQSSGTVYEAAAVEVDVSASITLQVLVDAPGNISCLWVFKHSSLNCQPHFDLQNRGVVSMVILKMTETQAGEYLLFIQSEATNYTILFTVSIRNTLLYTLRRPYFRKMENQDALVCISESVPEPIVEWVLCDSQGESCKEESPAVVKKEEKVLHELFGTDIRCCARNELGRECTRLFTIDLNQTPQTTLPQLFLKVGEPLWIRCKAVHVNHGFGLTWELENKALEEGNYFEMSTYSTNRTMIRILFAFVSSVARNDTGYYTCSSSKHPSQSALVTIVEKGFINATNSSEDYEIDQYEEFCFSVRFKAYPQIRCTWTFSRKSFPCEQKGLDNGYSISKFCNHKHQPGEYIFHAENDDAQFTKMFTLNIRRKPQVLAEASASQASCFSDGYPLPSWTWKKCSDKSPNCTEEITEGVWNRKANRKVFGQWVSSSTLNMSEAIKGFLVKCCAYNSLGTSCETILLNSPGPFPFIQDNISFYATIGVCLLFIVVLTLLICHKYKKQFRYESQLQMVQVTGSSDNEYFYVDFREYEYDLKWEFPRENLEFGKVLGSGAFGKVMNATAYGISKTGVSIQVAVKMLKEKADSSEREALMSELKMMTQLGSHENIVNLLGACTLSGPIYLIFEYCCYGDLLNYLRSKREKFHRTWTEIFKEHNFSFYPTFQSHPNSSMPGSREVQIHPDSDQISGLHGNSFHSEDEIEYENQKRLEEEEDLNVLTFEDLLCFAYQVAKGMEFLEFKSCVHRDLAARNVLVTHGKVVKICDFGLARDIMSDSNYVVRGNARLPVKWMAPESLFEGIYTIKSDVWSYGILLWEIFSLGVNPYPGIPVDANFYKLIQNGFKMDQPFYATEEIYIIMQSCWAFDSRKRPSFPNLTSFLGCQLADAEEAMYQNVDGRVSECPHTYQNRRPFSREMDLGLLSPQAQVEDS

| Compound | IC50 [nM] |
| --- | --- |
| Cc1cccc(NC(=O)Nc2nnc(Sc3ncnc4oc(-c5ccccc5)c(-c5ccccc5)c34)s2)c1 | 10 |
| COc1cccc(NC(=O)Nc2nnc(Sc3ncnc4oc(-c5ccccc5)c(-c5ccccc5)c34)s2)c1 | 4 |
| O=C(Nc1ccc(Br)cc1)Nc1nnc(Sc2ncnc3oc(-c4ccccc4)c(-c4ccccc4)c23)s1 | 55 |
| Cc1ccc(NC(=O)Nc2nnc(Sc3ncnc4oc(-c5ccccc5)cc34)s2)cc1Cl | 3 |
| O=C(Nc1ccc(Cl)c(C(F)(F)F)c1)Nc1nnc(Sc2ncnc3oc(-c4ccccc4)cc23)s1 | 3 |
| COc1ccc(-c2cc3c(Sc4nnc(NC(=O)Nc5ccccc5)s4)ncnc3o2)cc1 | 16 |
| COc1ccc(-c2cc3c(Sc4nnc(NC(=O)Nc5ccc(Cl)cc5)s4)ncnc3o2)cc1 | 22 |
| O=C(Nc1ccc(Cl)cc1)Nc1nnc(Sc2ncnc3oc(-c4ccccc4)c(-c4ccccc4)c23)s1 | 16 |
| O=C(Nc1nnc(Sc2ncnc3oc(-c4ccccc4)c(-c4ccccc4)c23)s1)Nc1ccc(F)cc1F | 6 |
| O=C(Nc1cccc(Cl)c1)Nc1nnc(Sc2ncnc3oc(-c4ccccc4)c(-c4ccccc4)c23)s1 | 14 |
| COc1ccc(-c2cc3c(Sc4nnc(NC(=O)Nc5cccc(Cl)c5)s4)ncnc3o2)cc1 | 48 |
| O=C(Nc1cccc(Cl)c1)Nc1nnc(Sc2ncnc3oc(-c4ccccc4)cc23)s1 | 10 |
| Cc1ccc(NC(=O)Nc2nnc(Sc3ncnc4oc(-c5ccccc5)c(-c5ccccc5)c34)s2)cc1 | 5 |
| O=C(Nc1ccc(Cl)cc1)Nc1nnc(Sc2ncnc3oc(-c4ccccc4)cc23)s1 | 9 |
| O=C(Nc1cccc(F)c1)Nc1nnc(Sc2ncnc3oc(-c4ccccc4)cc23)s1 | 56 |
| COc1ccc(NC(=O)Nc2nnc(Sc3ncnc4oc(-c5ccccc5)c(-c5ccccc5)c34)s2)cc1 | 5 |
| O=C(Nc1ccccc1)Nc1nnc(Sc2ncnc3oc(-c4ccccc4)c(-c4ccccc4)c23)s1 | 4 |
| Cc1ccc(NC(=O)Nc2nnc(Sc3ncnc4oc(-c5ccccc5)c(-c5ccccc5)c34)s2)cc1Cl | > 5000 |
| O=C(Nc1ccc(Cl)c(C(F)(F)F)c1)Nc1nnc(Sc2ncnc3oc(-c4ccccc4)c(-c4ccccc4)c23)s1 | 1270 |
| COc1cccc(NC(=O)Nc2nnc(Sc3ncnc4oc(-c5ccccc5)cc34)s2)c1 | 17 |
| Cc1cccc(NC(=O)Nc2nnc(Sc3ncnc4oc(-c5ccccc5)cc34)s2)c1 | 12 |
| O=C(Nc1ccc(Cl)c(Cl)c1)Nc1nnc(Sc2ncnc3oc(-c4ccccc4)cc23)s1 | 4 |
| O=C(Nc1ccc(Br)cc1)Nc1nnc(Sc2ncnc3oc(-c4ccccc4)cc23)s1 | 3 |
| COc1ccc(NC(=O)Nc2nnc(Sc3ncnc4oc(-c5ccc(OC)cc5)cc34)s2)cc1 | 23 |
| O=C(Nc1cccc(F)c1)Nc1nnc(Sc2ncnc3oc(-c4ccccc4)c(-c4ccccc4)c23)s1 | 4 |
| O=C(Nc1ccccc1)Nc1nnc(Sc2ncnc3oc(-c4ccccc4)cc23)s1 | 38 |
| COc1ccc(-c2cc3c(Sc4nnc(NC(=O)Nc5ccc(Cl)c(C(F)(F)F)c5)s4)ncnc3o2)cc1 | 55 |
| O=C(Nc1nnc(Sc2ncnc3oc(-c4ccccc4)c(-c4ccccc4)c23)s1)Nc1ccccc1Br | 4 |
| O=C(Nc1ccc(Cl)c(Cl)c1)Nc1nnc(Sc2ncnc3oc(-c4ccccc4)c(-c4ccccc4)c23)s1 | 455 |

tested on: MOLM-13; assay: cells; settings: Homo sapiens, MOLM-13, 72 h

| Compound | GI50 [nM] |
| --- | --- |
| Cc1cccc(NC(=O)Nc2nnc(Sc3ncnc4oc(-c5ccccc5)c(-c5ccccc5)c34)s2)c1 | 120 |
| COc1cccc(NC(=O)Nc2nnc(Sc3ncnc4oc(-c5ccccc5)c(-c5ccccc5)c34)s2)c1 | 185 |
| O=C(Nc1ccc(Br)cc1)Nc1nnc(Sc2ncnc3oc(-c4ccccc4)c(-c4ccccc4)c23)s1 | 723 |
| Cc1ccc(NC(=O)Nc2nnc(Sc3ncnc4oc(-c5ccccc5)cc34)s2)cc1Cl | 375 |
| O=C(Nc1ccc(Cl)c(C(F)(F)F)c1)Nc1nnc(Sc2ncnc3oc(-c4ccccc4)cc23)s1 | 1220 |
| COc1ccc(-c2cc3c(Sc4nnc(NC(=O)Nc5ccccc5)s4)ncnc3o2)cc1 | 117 |
| COc1ccc(-c2cc3c(Sc4nnc(NC(=O)Nc5ccc(Cl)cc5)s4)ncnc3o2)cc1 | 1140 |
| O=C(Nc1ccc(Cl)cc1)Nc1nnc(Sc2ncnc3oc(-c4ccccc4)c(-c4ccccc4)c23)s1 | 452 |
| O=C(Nc1nnc(Sc2ncnc3oc(-c4ccccc4)c(-c4ccccc4)c23)s1)Nc1ccc(F)cc1F | 164 |
| O=C(Nc1cccc(Cl)c1)Nc1nnc(Sc2ncnc3oc(-c4ccccc4)c(-c4ccccc4)c23)s1 | 404 |
| COc1ccc(-c2cc3c(Sc4nnc(NC(=O)Nc5cccc(Cl)c5)s4)ncnc3o2)cc1 | 1060 |
| O=C(Nc1cccc(Cl)c1)Nc1nnc(Sc2ncnc3oc(-c4ccccc4)cc23)s1 | 240 |
| Cc1ccc(NC(=O)Nc2nnc(Sc3ncnc4oc(-c5ccccc5)c(-c5ccccc5)c34)s2)cc1 | 194 |
| O=C(Nc1ccc(Cl)cc1)Nc1nnc(Sc2ncnc3oc(-c4ccccc4)cc23)s1 | 297 |
| O=C(Nc1cccc(F)c1)Nc1nnc(Sc2ncnc3oc(-c4ccccc4)cc23)s1 | 190 |
| COc1ccc(NC(=O)Nc2nnc(Sc3ncnc4oc(-c5ccccc5)c(-c5ccccc5)c34)s2)cc1 | 83 |
| O=C(Nc1ccccc1)Nc1nnc(Sc2ncnc3oc(-c4ccccc4)c(-c4ccccc4)c23)s1 | 110 |
| Cc1ccc(NC(=O)Nc2nnc(Sc3ncnc4oc(-c5ccccc5)c(-c5ccccc5)c34)s2)cc1Cl | > 10000 |
| O=C(Nc1ccc(Cl)c(C(F)(F)F)c1)Nc1nnc(Sc2ncnc3oc(-c4ccccc4)c(-c4ccccc4)c23)s1 | > 10000 |
| COc1cccc(NC(=O)Nc2nnc(Sc3ncnc4oc(-c5ccccc5)cc34)s2)c1 | 79 |
| Cc1cccc(NC(=O)Nc2nnc(Sc3ncnc4oc(-c5ccccc5)cc34)s2)c1 | 105 |
| O=C(Nc1ccc(Cl)c(Cl)c1)Nc1nnc(Sc2ncnc3oc(-c4ccccc4)cc23)s1 | 710 |
| O=C(Nc1ccc(Br)cc1)Nc1nnc(Sc2ncnc3oc(-c4ccccc4)cc23)s1 | 570 |
| COc1ccc(NC(=O)Nc2nnc(Sc3ncnc4oc(-c5ccc(OC)cc5)cc34)s2)cc1 | 180 |
| O=C(Nc1cccc(F)c1)Nc1nnc(Sc2ncnc3oc(-c4ccccc4)c(-c4ccccc4)c23)s1 | 650 |
| O=C(Nc1ccccc1)Nc1nnc(Sc2ncnc3oc(-c4ccccc4)cc23)s1 | 87 |
| COc1ccc(-c2cc3c(Sc4nnc(NC(=O)Nc5ccc(Cl)c(C(F)(F)F)c5)s4)ncnc3o2)cc1 | 5820 |
| O=C(Nc1nnc(Sc2ncnc3oc(-c4ccccc4)c(-c4ccccc4)c23)s1)Nc1ccccc1Br | 427 |
| O=C(Nc1ccc(Cl)c(Cl)c1)Nc1nnc(Sc2ncnc3oc(-c4ccccc4)c(-c4ccccc4)c23)s1 | 8660 |
